According to PMC10961089, “Epidermal growth factor receptor inhibition potentiates chemotherapeutics‐mediated sensitization of metastatic breast cancer stem cells” (Cancer Reports, 2024):

Key:
Assay type in all cases: cell-based, human
[1] = test system: CD24^−/CD44^+‐breast CSC population sorted from MDA‐MB‐231; assay: MTT assay in sorted breast CSC population; details: doxorubicin 0.01 μM + 1e 5 μM vs doxorubicin 0.01 μM alone
Experimental: To evaluate the cytotoxicity profile of the potential EGFR inhibitors (compounds) against TNBC cell lines—MDA‐MB‐231, MDA‐MB‐468, and control cell line HEK293, cells were seeded at a cell density of 5 × 10^3 cells/well in complete medium onto 96‐well plates. Here, the non‐tumoral human embryonic kidney (HEK293) epithelial cells have been utilized as a control cell line to compare the IC50 values of the compounds between cancerous and non‐cancerous cell lines with a big therapeutic window. The use of HEK293 cells as compared to other non‐cancerous cell lines are easy to maintain in culture and the results obtained from HEK293 are highly reproducible and consistent.[27] Briefly, the cells were incubated at 37°C for 12 h to attain morphology. After 12 h, cells were serum starved by replacing the complete media with media containing 2% FBS to synchronize the cells. […] All the experiments were performed thrice and the IC50 values of the compounds and Doxorubicin were calculated using GraphPad Prism software version 9 (San Diego, CA, USA). Similarly, the percent inhibition of the sorted cell populations by chemotherapeutic drug, doxorubicin in the absence/presence of potent compound 1e or standard EGFR inhibitor, PD153035 was evaluated utilizing GraphPad Prism Version 9 (San Diego, CA, USA).

MDA‐MB‐231 = assay: MTT cytotoxicity assay in MDA-MB-231; details: compound alone, MTT, 48 h; read-out: IC50 (μM) in MDA‐MB‐231 (mean ± SD)
Experimental: TNBC cell lines (ER^−, PR^−, HER2^−)—MDA‐MB‐231 (ATCC HTB‐26) and MDA‐MB‐468 (ATCC HTB‐132) were procured from ATCC and cultured in Roswell Park Memorial Institute Media (RPMI‐1640) and Dulbecco's Modified Eagle's Medium (DMEM), respectively, supplemented with 10% FBS and 1% Penicillin–Streptomycin solution. Cells were maintained at 5% CO2 at 37°C in a humid atmosphere.[6], [26] The control cell line, Human Embryonic Kidney—HEK‐293 (ATCC CRL‐3216) was also obtained from ATCC and cultured in DMEM.[5], [25]
To evaluate the cytotoxicity profile of the potential EGFR inhibitors (compounds) against TNBC cell lines—MDA‐MB‐231, MDA‐MB‐468, and control cell line HEK293, cells were seeded at a cell density of 5 × 10^3 cells/well in complete medium onto 96‐well plates. Here, the non‐tumoral human embryonic kidney (HEK293) epithelial cells have been utilized as a control cell line to compare the IC50 values of the compounds between cancerous and non‐cancerous cell lines with a big therapeutic window. The use of HEK293 cells as compared to other non‐cancerous cell lines are easy to maintain in culture and the results obtained from HEK293 are highly reproducible and consistent.[27] Briefly, the cells were incubated at 37°C for 12 h to attain morphology. After 12 h, cells were serum starved by replacing the complete media with media containing 2% FBS to synchronize the cells. Post‐12 h of synchronization, cells were treated with an increasing concentration (0.1, 1, 10, 100 μM) of all the compounds (1a, 1b, 1c, 1d, 1e, 1f, 1g, 1h, 1i, 1j, 1k). Separately, TNBC cells were treated with increasing concentration (0.01, 0.1, 1 μM) of Doxorubicin (Sigma‐Aldrich, St Louis, MO, USA) in presence of the selected compounds (1c, 1e, 1g, 1h, 1j, and 1k) at 5 μM concentration or combination of selected compounds (1c, 1e, 1g, 1h, 1j, and 1k) at increasing concentration (1, 2.5, 5, 10 μM) in presence of Doxorubicin (0.01 μM) for 48 h. In addition, the CD24^+‐breast cancer cells and CD24^−/CD44^+‐breast CSC populations, being sorted by Magnetic Activated Cell Sorting (MACS) from MDA‐MB‐231 cells as described previously,[6] were also treated with increasing concentrations of Doxorubicin (0.01–1 μM), in the presence or absence of 1e (10–30 μM), or PD153035 (10 μM) (Sigma‐Aldrich, St Louis, MO, USA). MTT assay was performed to evaluate the cytotoxicity of these compounds against the TNBC cell lines, and the sorted populations as described previously.[6] All the experiments were performed thrice and the IC50 values of the compounds and Doxorubicin were calculated using GraphPad Prism software version 9 (San Diego, CA, USA). Similarly, the percent inhibition of the sorted cell populations by chemotherapeutic drug, doxorubicin in the absence/presence of potent compound 1e or standard EGFR inhibitor, PD153035 was evaluated utilizing GraphPad Prism Version 9 (San Diego, CA, USA).

[2] = test system: BAX, BCL‐2, cytochrome‐C in MDA‐MB‐231 cells; assay: Immunoblot analysis of apoptotic markers; details: MDA-MB-231, doxorubicin 0.01 μM + compound 5 μM
Experimental: MDA‐MB‐231 cells were subjected to the treatment of doxorubicin (0.01 μM) in the absence/presence of the selected potent compounds—1c, 1e, 1g, 1h, 1j, and 1k at 5 μM concentration or a standard EGFR inhibitor, PD153035 (10 μM) for 48 h. Separately, TNBC cells—MDA‐MB‐231 were also treated with doxorubicin (0.01 and/or 0.1 μM) in the absence/presence of potent EGFR inhibitor/compound, 1e at 5 μM concentration or a standard EGFR inhibitor, PD153035 (10 μM) for 48 h. Cells were then lysed to isolate the total protein and subjected to SDS‐PAGE, transferred onto a poly (vinylidene difluoride) membrane, probing with primary antibodies (Table ST2) against apoptotic markers—BAX, BCL‐2, cytochrome‐C, and β‐actin followed by incubation with horseradish peroxidase‐conjugated secondary antibodies (CST, Waltham, MA, USA) as described previously.[6] Visualization was performed using G: Box (Syngene, Cambridge, UK).

Compound: c1cncc(C(c2c[nH]c3ccccc23)c2c[nH]c3ccccc23)c1 [1e]
- increase of percent inhibition of cell proliferation versus doxorubicin alone [1]: 6.1 folds
- IC50 (MDA‐MB‐231): 18.6 ± 1.84 µM
- BAX protein level ([2]; 48 h): elevation
- BAX/BCL2 ratio ([2]; 48 h): elevation
- BCL2 levels ([2]; 48 h): marked decrease
- doxorubicin‐induced expression of Cyt‐C ([2]; vs the other compounds): comparatively higher levels
